Measurements as given in paper PMC7824787, “Design, Synthesis and In Vitro Investigation of Novel Basic Celastrol Carboxamides as Bio-Inspired Leishmanicidal Agents Endowed with Inhibitory Activity against Leishmania Hsp90” (Biomolecules, 2021).
Like-named read-outs stand apart in the source and are kept apart here.

Legend:
[1] = system: HMEC-1; assay: Cytotoxicity on HMEC-1 (MTT); type: cell-based, human; settings: Homo sapiens, read-out: Healthy Cell Lines IC50, HMEC-1
Method: (§1) Cytotoxicity was evaluated on human microvascular endothelial cells (HMEC-1, provided by the Centers for Disease Control, Atlanta, GA, USA), on immortalized mouse C57Bl/6 bone marrow derived macrophages (BMDM) from wild type lineage (generated in the laboratories of Drs. Douglas Golenbock and Kate Fitzgerald, University of Massachusetts, Worcester, MA, USA) and on a human acute monocytic leukaemia cell line (THP-1).
(§2) HMEC-1 were maintained in MCDB 131 medium (Invitrogen, Milan, Italy) supplemented with 10% fetal calf serum (HyClone), 10 ng/mL of epidermal growth factor, 1 μg/mL of hydrocortisone, 2 mM glutamine and 20 mM HEPES buffer, at 37 °C in 5% CO2. BMDM were maintained in DMEM (Euroclone) medium supplemented with 10% fetal bovine serum (HyClone, Celbio, Milan, Italy), 2 mM glutamine, and 25 mM of HEPES buffer solution (Euroclone). THP-1 were maintained in RPMI supplemented with 10% heat-inactivated FCS, 50 µM 2-mercaptoethanol, 10 µM sodium pyruvate, 20 mM HEPES, and 2 mM glutamine. In order to achieve differentiation into macrophages, cells were treated with 10 ng/mL phorbol myristate acetate (PMA) for 72 h.
(§3) For the cytotoxicity assay, cells were seeded in 96 well flat bottom tissue culture clusters (Costar, New York, NY, USA) at the following concentrations: HMEC 10^5 cell/mL, BMDM at 10^6 cell/mL, THP1 at 5 × 10^5 cell/mL. After 24 h, cells were treated with serial dilutions of test compounds in a final volume of 200 µL/well. Cell proliferation was evaluated after 72 h using the MTT assay.
(§4) The absorbances were measured with a microplate spectrophotometer (Synergy 4-Biotek) at a test wavelength of 550 nm and a reference wavelength of 650 nm. The results are expressed as IC50 as the concentration inhibiting 50% of cell growth. Each IC50 value is the mean and standard deviation of at least three separate experiments performed in duplicate.

[2] = system: THP-1; assay: Cytotoxicity on THP-1 (MTT); type: cell-based, human; settings: Homo sapiens, THP-1; PMA-differentiated, 72 h, MTT; read-out: Healthy Cell Lines IC50, THP-1
Method: as §1, §2, §3, §4

[3] = system: L. tropica promastigotes; assay: Antileishmanial activity on L. tropica promastigotes (MTT); type: cell-based
Method: Promastigote stage of L. infantum (MHOM/TN/80/IPT1, kindly provided by Dr. M. Gramiccia and Dr. T. Di Muccio, ISS, Roma) and L. tropica (MHOM/SY/2012/ISS3130) were cultured in RPMI 1640 medium (EuroClone) supplemented with 15% heat-inactivated fetal calf serum (EuroClone, Milan, Italy), 20 mM HEPES, and 2 mM L-glutamine at 23 °C. The MTT (3-[4.5-dimethylthiazol-2-yl]-2.5-diphenyltetrazolium bromide) method was used to estimate the 50% inhibitory concentration (IC50), with some modifications. Compounds were dissolved in DMSO and then diluted with medium to achieve the required concentrations. Test compounds were placed in 96 wells round bottom microplates and seven serial dilutions made. Amphotericin B was used as the reference antileishmanial drug. Parasites were diluted in complete medium to 5 × 10^6 parasites/mL and 100 μL of the suspension was seeded into the plates and incubated at 23 °C for 72 h. Then 20 μL of MTT solution (5 mg/mL) was added into each well, after 3 h the plates were centrifuged, the supernatants discarded and the resulting pellets dissolved in 100 μL of lysing buffer consisting of 20% (w/v) of a solution of SDS (Sigma), 40% of N,N-dimethylformamide (Merck) in H2O. The absorbance of the obtained solutions was measured at a wavelength of 550 nm with a reference at 650 nm with a microplate spectrophotometer (Synergy 4-Biotek, Milan, Italy) and analyzed with the Gen5® software for data processing.
The results are expressed as IC50, the dose of compound that is necessary to inhibit cell growth by 50%; each IC50 value is the mean ± standard deviation of at least three separate experiments performed in duplicate.

[4] = 72 h, 23 °C, MTT; read-out: Leishmania Promastigotes IC50, L. tropica
[5] = Leishmania tropica, 72 h, 23 °C, MTT, read-out: Leishmania Promastigotes IC50, L. tropica

IC50 [3, 4]	IC50 [3, 5]	SMILES	IC50 ([1]; HMEC-1, 72 h, MTT)	IC50 [2]	IC50 ([1]; HMEC-1, 72 h)	IC50 ([3]; Leishmania tropica; 72 h, 23 °C, MTT; read-out: Leishmania Promastigotes IC50, L. tropica)
80 ± 40 nM	< 100 nM	CC1=C(O)C(=O)C=C2C1=CC=C1[C@@]2(C)CC[C@@]2(C)[C@@H]3C[C@](C)(C(=O)NCCN4CCCC4)CC[C@]3(C)CC[C@]12C [compound 3, (2R,4aS,6aS,12bR,14aS,14bR)-10-hydroxy-2,4a,6a,9,12b,14a-hexamethyl-11-oxo-N-(2-(pyrrolidin-1-yl)ethyl)-1,2,3,4,4a,5,6,6a,11,12b,13,14,14a,14b-tetradecahydropicene-2-carboxamide]	530 ± 170 nM	2790 ± 440 nM		
3070 ± 1360 nM	2000 to 4000 nM	CC1=C(O)C(=O)C=C2C1=CC=C1[C@@]2(C)CC[C@@]2(C)[C@@H]3C[C@](C)(C(=O)NCCSS(C)(=O)=O)CC[C@]3(C)CC[C@]12C [compound 9, S-(2-((2R,4aS,6aS,12bR,14aS,14bR)-10-hydroxy-2,4a,6a,9,12b,14a-hexamethyl-11-oxo-1,2,3,4,4a,5,6,6a,11,12b,13,14,14a,14b-tetradecahydropicene-2-carboxamido)ethyl) methanesulfonothioate]	4070 ± 50 nM	3280 ± 900 nM		

More lines, now with the values behind:

SMILES	IC50 [3, 4]	IC50 [3, 5]	IC50 ([1]; HMEC-1, 72 h, MTT)	IC50 [2]	IC50 ([1]; HMEC-1, 72 h)	IC50 ([3]; Leishmania tropica; 72 h, 23 °C, MTT; read-out: Leishmania Promastigotes IC50, L. tropica)
CC1=C(O)C(=O)C=C2C1=CC=C1[C@@]2(C)CC[C@@]2(C)[C@@H]3C[C@](C)(C(=O)NCCN4CCCCC4)CC[C@]3(C)CC[C@]12C [compound 1, (2R,4aS,6aS,12bR,14aS,14bR)-10-hydroxy-2,4a,6a,9,12b,14a-hexamethyl-11-oxo-N-(2-(piperidin-1-yl)ethyl)-1,2,3,4,4a,5,6,6a,11,12b,13,14,14a,14b-tetradecahydropicene-2-carboxamide]		90 ± 30 nM	510 ± 80 nM	2080 ± 240 nM		
CC1=C(O)C(=O)C=C2C1=CC=C1[C@@]2(C)CC[C@@]2(C)[C@@H]3C[C@](C)(C(=O)NCC45CCCN4CCC5)CC[C@]3(C)CC[C@]12C [compound 5, (2R,4aS,6aS,12bR,14aS,14bR)-N-((hexahydro-1H-pyrrolizin-7a-yl)methyl)-10-hydroxy-2,4a,6a,9,12b,14a-hexamethyl-11-oxo-1,2,3,4,4a,5,6,6a,11,12b,13,14,14a,14b-tetradecahydropicene-2-carboxamide]		120 ± 50 nM	120 ± 30 nM	1880 ± 340 nM		
CC1=C(O)C(=O)C=C2C1=CC=C1[C@@]2(C)CC[C@@]2(C)[C@@H]3C[C@](C)(C(=O)NCCNc4ccnc5cc(Cl)ccc45)CC[C@]3(C)CC[C@]12C [compound 6, (2R,4aS,6aS,12bR,14aS,14bR)-N-(2-((7-chloroquinolin-4-yl)amino)ethyl)-10-hydroxy-2,4a,6a,9,12b,14a-hexamethyl-11-oxo-1,2,3,4,4a,5,6,6a,11,12b,13,14,14a,14b-tetradecahydropicene-2-carboxamide]		140 ± 30 nM	400 ± 30 nM	850 ± 240 nM		
CC1=C(O)C(=O)C=C2C1=CC=C1[C@@]2(C)CC[C@@]2(C)[C@@H]3C[C@](C)(C(=O)O)CC[C@]3(C)CC[C@]12C [CE, celastrol]				900 ± 300 nM	380 ± 80 nM	490 ± 170 nM
